Where two headings read alike, the source gives them in different places. Where no end group is shown, it is not given here.
Biological target: KsBcl-2 (Human herpesvirus 8 type P, UniProt F5HGJ3, V117A)
Assay: biochemical
Assay type: binding, Kaposi's sarcoma-associated herpesvirus

Chain of KsBcl-2 (F5HGJ3 1-146 V117A): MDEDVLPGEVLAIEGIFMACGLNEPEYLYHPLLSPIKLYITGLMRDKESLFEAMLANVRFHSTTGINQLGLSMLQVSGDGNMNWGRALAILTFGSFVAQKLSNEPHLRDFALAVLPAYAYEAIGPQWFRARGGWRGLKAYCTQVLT

Compound	IC50 (SEM)	IC50
CC[C@H](C)[C@H](NC(=O)[C@H](CC(N)=O)NC(=O)[C@H](CCCNC(=N)N)NC(=O)[C@@H](NC(=O)[C@@H](NC(=O)[C@H](CC(=O)O)NC(=O)[C@H](CCC(=O)O)NC(=O)[C@H](CCC(N)=O)NC(=O)[C@H](CO)NC(=O)[C@H](CCC(=O)O)NC(=O)[C@@H](N)CO)[C@@H](C)CC)[C@@H](C)CC)C(=O)N[C@@H](C)C(=O)N[C@@H](CCCNC(=N)N)C(=O)N[C@@H](Cc1c[nH]cn1)C(=O)N[C@@H](CC(C)C)C(=O)N[C@@H](C)C(=O)N[C@@H](CCC(N)=O)C(=O)N[C@H](C(=O)NCC(=O)N[C@@H](CC(=O)O)C(=O)N[C@@H](CO)C(=O)N[C@@H](CCSC)C(=O)N[C@@H](CC(=O)O)C(=O)N[C@@H](CCCNC(=N)N)C(=O)N[C@@H](CO)C(=O)N[C@H](C(=O)N1CCC[C@H]1C(=O)N1CCC[C@H]1C(=O)NCC(=O)N[C@@H](CC(C)C)C(=O)N[C@H](C(=O)N[C@@H](CC(N)=O)C(=O)NCC(=O)N[C@@H](CC(C)C)C(=O)O)C(C)C)[C@@H](C)CC)C(C)C [Bid]	20 ± 9 nM	–
CC[C@H](C)[C@H](NC(=O)[C@H](CS)NC(=O)[C@H](C)NC(=O)[C@H](CC(C)C)NC(=O)[C@H](CCCNC(=N)N)NC(=O)[C@H](CC(C)C)NC(=O)[C@H](C)NC(=O)[C@H](CC(C)C)NC(=O)[C@H](C)NC(=O)[C@H](CC(=O)O)NC(=O)[C@H](CO)NC(=O)CNC(=O)[C@H](CCC(=O)O)NC(=O)[C@@H](N)CCSC)C(=O)NCC(=O)N[C@@H](CC(=O)O)C(=O)N[C@@H](CCC(=O)O)C(=O)N[C@@H](CCSC)C(=O)N[C@@H](CC(=O)O)C(=O)N[C@H](C(=O)N[C@@H](CO)C(=O)N[C@@H](CC(C)C)C(=O)N[C@@H](CCCNC(=N)N)C(=O)N[C@@H](C)C(=O)N1CCC[C@H]1C(=O)O)C(C)C [Bik]	64 ± 4 nM	–
CC[C@H](C)[C@H](NC(=O)[C@H](CCC(=O)O)NC(=O)[C@H](CCCN=C(N)N)NC(=O)[C@H](C)NC(=O)[C@H](Cc1c[nH]c2ccccc12)NC(=O)[C@H](CCC(N)=O)NC(=O)[C@H](CCC(=O)O)NC(=O)[C@@H](N)CCC(=O)O)C(=O)NCC(=O)N[C@@H](C)C(=O)N[C@@H](CCC(N)=O)C(=O)N[C@@H](CC(C)C)C(=O)N[C@@H](CCCN=C(N)N)C(=O)N[C@@H](CCCN=C(N)N)C(=O)N[C@@H](CCSC)C(=O)N[C@@H](C)C(=O)N[C@@H](CC(=O)O)C(=O)N[C@@H](CC(=O)O)C(=O)N[C@@H](CC(C)C)C(=O)N[C@@H](CC(N)=O)C(=O)N[C@@H](C)C(=O)N[C@@H](CCC(N)=O)C(=O)N[C@@H](Cc1ccc(O)cc1)C(=O)N[C@@H](CCC(=O)O)C(=O)N[C@@H](CCCN=C(N)N)C(=O)N[C@@H](CCCN=C(N)N)C(=O)O [Puma]	26 ± 9 nM	–
PAELEVECATQLRRFGDKLNFRQKLL [Noxa]	–	220 nM
PSSTMGQVGRQLAIIGDDINRRYDSE [Bak]	8 nM	–
VPGRLAEVCAVLLRLGDELEMIRPSV [Bok]	198 ± 13 nM	–
VPQDASTKKLSECLKRIGDELDSNMELQ [Bax]	16 nM	–
